# Data from patent publication US7070983B2, “Mutant Pseudomonas putida strains and methods of use thereof” (priority 2003, dated 2006).
# What was measured:
# [1] = test system: 4HBA-tolerant Str, Gen and Rif mutants of P. putida KH146-2; format: cell-based, Pseudomonas putida; conditions: for Tolerance of mutants relative to wild-type: Str mutants and Rif mutants tested, in words
# Method: (§1) Pseudomonas putida KH146-2 was originally isolated from soil for the capability of growing in the presence of 4-hydroxybenzoate (Chen et al., ((1998) Res Communs Biochem and Cell & Mol Biol 2: 253–274)). HBM medium consists of 50 mM sodium potassium phosphate buffer (pH6.8), 0.1% (NH4)2SO4 and Hutner's base. Hutner's base cotained (per liter) nitrilotriacetic acid, 200 mg; CaCl2.2H2O, 67 mg; (NH4)6Mo7O24.4H2O, 185 μg; MgSO4, 289 mg; EDTA, 2.5 mg; ZnSO4.7H2O, 11 mg; FeSO4.7H2O, 7 mg; MnSO4.H2O, 1.5 mg; CuSO4.5H2O, 390 μg; Co(NO3)2.6H2O, 250 μg, and Na2B4O7.10H2O, 180 μg. LB medium contains 1% tryptone, 0.5% yeast extract, and 1% NaCl (adjusted pH 6.8). LBH medium contains 1% tryptone and 0.5% yeast extract in HBM medium. The bacteria were grown at 30° C. in a shaker at 200 rpm. For tolerance tests, HBM or LBH agar plates containing serially increasing concentrations of an organic chemical were employed. Routinely, 20 to 40 bacterial strains were spot-transplanted with the aid of tooth pick on an agar plate, followed by incubation at 30° C. for 3 days.
# Using several strains randomly chosen as representatives of 4HBA-tolerant mutants, we examined the tolerance level to various organic compounds. […] Tolerance levels to other organic compounds were also examined.
# [2] = test system: P. putida wild-type KH146-2; format: cell-based, Pseudomonas putida; conditions: LBH medium, 30° C., 3 days
# Method: as §1
# [3] = test system: Strain no. 55 (Str Gen double mutant); experiment: 4HBA tolerance after growth on LB without 4HBA; format: cell-based, Pseudomonas putida; conditions: strains grown once on LB medium without 4HBA
# [4] = test system: Str Gen double mutant no. 55; experiment: Uptake of [14C]4HBA; format: cell-based, Pseudomonas putida; conditions: [14C]4HBA at 100 μM, FIG. 3
# Method: (§2) The method described by Thanassi et al. ((1995) J Bacteriol 177:998–1007) was used with some modifications. The bacteria were grown to mid-log phase in HBM medium containing 0.3% 4HBA, washed and resuspended in 0.3% succinate-HBM medium to give OD660=0.7. A 5 ml-aliquot of the bacterial suspension in a 100 ml flask was incubated in a shaker bath. A 0.5 μCi [carboxyl-^14C]4HBA (55 mCi mmol^−1, ARC.) with unlabelled 4HBA at increasing concentrations, were added to the 5 ml bacterial suspension and incubation was continued. At the indicated time, a 0.5 ml aliquot of sample was removed and filtered using a nitrocellulose filter (0.45 μm pore size, Millipore Corp, Bedford, Mass.) which had previously been washed with 2 ml of HBM medium containing 5 mM 4HBA. The sample was applied with a Pipetman, followed by immediate washing with 3 ml of 5 mM 4HBA-HBM medium. The membrane filter was dried, and transferred to a scintillation vial containing Brey's solution, and radioactivity was measured in scintillation spectrometer. From the rate of uptake and the concentration of 4HBA, apparent Km was determined by reciprocal plotting as described by Beman et al ((1983) J Bacteriol 156:1107–1117).
# (§3) Therefore, we first grew cells to mid-log phase in HBM medium containing 0.3% 4HBA and succinate, washed, and resuspended in HBM medium containing only succinate. […]
# [5] = test system: strain no. 3 carrying plasmid pYI433 containing the wild-type rpsL gene; experiment: Complementation experiment, 4HBA-tolerance; format: cell-based, Pseudomonas putida; conditions: strain no. 3 with plasmid containing the rpsL gene
# Excerpt: (§4) To clone the rpsL gene, a 0.9-kb DNA region covering whole rpsL was amplified from the chromosomal DNA of P. putida KH146-2 using KDO DNA polymerase (Toyobo Biochemicals, Osaka). Oligonucleotide primers were designed according to the rpoC-rpsL-rpsG sequence of P. putida KT2440 (www.tigr.org); 5′-[…]-3′ (SEQ ID NO:7—nucleotides [nt]−368 to −341 upstream of rpsL) and 5′-[…]-3′ (SEQ ID NO:8—complementary to nt 107 to 135 downstream of rpsL). The amplified DNA fragments were cloned into plasmid pUC118 (Vieira and Messing, (1987) Methods Enzymol 153: 3–11) to confirm the sequence, then excised from the plasmids as a BamHI-SphI fragment using the restriction sites in the multi-cloning sequence of the vector and inserted between the BglII and SphI sites of the E. coli-Pseudomonas shuttle vector pNIT6010 carrying tet^R, a derivative of pNIT6011 (Nishijyo et al. (2001) Mol Microbiol 40:917–931). The resultant plasmid pYI433, as well as vector control pNIT6010, was introduced into the Str mutant no. 3 (str-1) by conjugation using E. coli HB101/pRK2013 as the helper (Comai et al. (1983) Plasmid 10:21–30). Fifty μg ml^−1 of tetracycline was used for selection of transformants.
# (§5) […]
# [6] = test system: strain no. 3 harbouring a plasmid without rpsL; experiment: Complementation experiment, 4HBA-tolerance; format: cell-based, Pseudomonas putida
# Excerpt: as §4, §5
# Str and Rif mutants [7] = format: cell-based, Pseudomonas putida
# Method: as §2, §3
# [8] = test system: wild-type and mutant strains; experiment: Determination of protein synthesis ([14C]leucine incorporation); format: cell-based, Pseudomonas putida; conditions: absence or presence (0.6 or 1.2%) of 4HBA; data not shown
# [9] = test system: P. putida strain no. 18 (Rif mutant); experiment: Tolerance test (MIC) on agar plates; format: cell-based, Pseudomonas putida; conditions: LBH medium
# Method: as §1
# [10] = test system: P. putida strain no. 17 (Rif mutant); experiment: Tolerance test (MIC) on agar plates; format: cell-based, Pseudomonas putida
# Method: as §1
# [11] = test system: P. putida strain no. 12 (Gen mutant); experiment: Tolerance test (MIC) on agar plates; format: cell-based, Pseudomonas putida
# Method: as §1
# [12] = test system: P. putida strain no. 15 (Rif mutant); experiment: Tolerance test (MIC) on agar plates; format: cell-based, Pseudomonas putida
# Method: as §1
# [13] = test system: P. putida strain no. 14 (Rif mutant); experiment: Tolerance test (MIC) on agar plates; format: cell-based, Pseudomonas putida
# Method: as §1
# [14] = test system: P. putida strain no. 20 (Rif mutant); experiment: Tolerance test (MIC) on agar plates; format: cell-based, Pseudomonas putida; conditions: LBH medium
# Method: as §1
# [15] = test system: P. putida strain no. 3 (Str mutant); experiment: Tolerance test (MIC) on agar plates; format: cell-based, Pseudomonas putida
# Method: as §1
# [16] = test system: P. putida strain no. 9 (Str mutant); experiment: Tolerance test (MIC) on agar plates; format: cell-based, Pseudomonas putida
# Method: as §1
# Rif mutant no. 17 = conditions: read-out: apparent Km of 4HBA uptake, 50 to 500 μM 4HBA
# Method: as §2
# (§6) Therefore, we first grew cells to mid-log phase in HBM medium containing 0.3% 4HBA and succinate, washed, and resuspended in HBM medium containing only succinate. [^14C]4HBA was then added with unlabeled 4HBA at various (50 to 500 μM) concentrations.
# wild-type KH146-2 = conditions: read-out: apparent Km of 4HBA uptake; wild-type strain; 50 to 500 μM 4HBA
# Method: as §2, §6
# Str mutant no. 3 = conditions: read-out: apparent Km of 4HBA uptake, 50 to 500 μM 4HBA
# Method: as §2, §6
# [17] = test system: 4HBA-adapted mutants of wild-type strain KH146-2; experiment: 4HBA tolerance by sequential adaptation; format: cell-based, Pseudomonas putida; conditions: mutants obtained by step by step adaptation
# Method: Wild-type strain KH146-2 was adapted, step by step, to grow in HBM medium containing increasing concentrations (from 0.8% to 5%) of 4HBA. In steps using high concentrations (>3%) of 4HBA, adaptation required a longer term incubation (7˜10 days) for each step. In certain steps, the 4HBA-adapted mutants were isolated using agar plates (containing the adapted concentrations of 4HBA), on which tolerant mutants formed big size colonies.
# KH146-2 = experiment: Organic solvent tolerance, growth in saturated LBH medium; format: cell-based, Pseudomonas putida
# Str and Rif mutants [18] = experiment: as above; format: cell-based, Pseudomonas putida
# [19] = HBM medium, 4HBA as a sole carbon source
# [20] = LBH medium containing saturated concentrations of m-xylene
# [21] = 3% MeOH-LBH medium saturated with toluene
molecule,measurement,setting,value
isonicotinate,Tolerance of mutants relative to wild-type,[1],increased tolerance
O=C(O)c1ccc(F)cc1 [4-fluorobenzoate],Tolerance of mutants relative to wild-type,[1],increased tolerance
"O=C(O)c1ccc(O)cc1 [4HBA, 4-hydroxybenzoate]",Tolerance (MIC),[2],1.4 ± 0.1%
same,Tolerance to 4HBA,[3]; 3% 4HBA,still showed a tolerance
same,Growth on 4HBA-containing medium,[3]; 5% 4HBA,no longer grew
same,uptake of 4HBA,[4],reduced uptake
same,4HBA-tolerance,[5],1%
same,4HBA-tolerance,[6],1.6%
same,Km values greater than wild-type,Str and Rif mutants [7]; Str and Rif mutants vs wild-type,2 to 3 fold
same,"apparent uptake by the membrane transport system, reduction compared to wild-type",Str and Rif mutants [7]; the mutants vs wild-type strain,2 to 3 fold
same,"degree of suppression of protein synthesis, wild-type vs mutant strains",[8],no difference
same,Tolerance (MIC),[9],2.0 ± 0.2%
same,Tolerance (MIC),[10]; [19],(1.3 ± 0.1) %
same,Tolerance (MIC),[10]; LBH medium,1.8 ± 0.2%
same,Tolerance (MIC),[11]; [19],(1.6 ± 0.2) %
same,Tolerance (MIC),[11]; LBH medium,1.9 ± 0.3%
same,Tolerance (MIC),[12]; [19],(1.2 ± 0.2) %
same,Tolerance (MIC),[12]; LBH medium,1.8 ± 0.2%
same,Tolerance (MIC),[13]; [19],(1.4 ± 0.2) %
same,Tolerance (MIC),[13]; LBH medium,1.8 ± 0.2%
same,Tolerance (MIC),[14],1.9 ± 0.1%
same,Tolerance (MIC),[15]; [19],(1.7 ± 0.1) %
same,Tolerance (MIC),[15]; LBH medium,1.9 ± 0.1%
same,Tolerance (MIC),[16]; [19],(1.3 ± 0.2) %
same,Tolerance (MIC),[16]; LBH medium,1.6 ± 0.2%
same,Km,Rif mutant no. 17,620 µM
same,Km,wild-type KH146-2,240 µM
same,Km,Str mutant no. 3,470 µM
same,minimum inhibitory concentration (MIC),"[1]; the mutants, 4HBA as the sole carbon source",1.7%
same,4HBA concentration tolerated,[17],up to 5%
O=C(O)c1cc(Cl)ccc1O [5-chlorosalicylate],Tolerance of mutants relative to wild-type,[1],increased tolerance
"O=C(O)c1cccc(O)c1 [3HBA, 3-hydroxybenzoate]",Tolerance (MIC),[2],1.4 ± 0.1%
same,Tolerance (MIC),[10]; LBH medium,1.8 ± 0.3%
same,Tolerance (MIC),[11]; LBH medium,1.9 ± 0.2%
same,Tolerance (MIC),[12]; LBH medium,1.9 ± 0.2%
same,Tolerance (MIC),[13]; LBH medium,1.9 ± 0.1%
same,Tolerance (MIC),[15]; LBH medium,1.8 ± 0.2%
same,Tolerance (MIC),[16]; LBH medium,1.8 ± 0.1%
same,Tolerance of mutants relative to wild-type,[1],modest increment of tolerance
O=C(O)c1ccc(Cl)cc1O [4-chlorosalicylate],Tolerance of mutants relative to wild-type,[1],increased tolerance
"O=C(O)c1ccccc1 [BA, benzoic acid]",Tolerance (MIC),[2],0.8 ± 0.2%
same,Tolerance (MIC),[10]; LBH medium,1.1 ± 0.1%
same,Tolerance (MIC),[11]; LBH medium,1.0 ± 0.1%
same,Tolerance (MIC),[12]; LBH medium,1.0 ± 0.1%
same,Tolerance (MIC),[13]; LBH medium,1.1 ± 0.1%
same,Tolerance (MIC),[15]; LBH medium,1.0 ± 0.1%
same,Tolerance (MIC),[16]; LBH medium,0.9 ± 0.1%
same,Tolerance of mutants relative to wild-type,[1],slight or no increase of tolerance
"O=C(O)c1ccccc1Cl [2CB, 2-chlorobenzoate]",Tolerance (MIC),[2],1.5 ± 0.2%
same,Tolerance (MIC),[10]; LBH medium,2.1 ± 0.2%
same,Tolerance (MIC),[11]; LBH medium,1.9 ± 0.3%
same,Tolerance (MIC),[12]; LBH medium,2.0 ± 0.2%
same,Tolerance (MIC),[13]; LBH medium,1.9 ± 0.2%
same,Tolerance (MIC),[15]; LBH medium,1.9 ± 0.2%
same,Tolerance (MIC),[16]; LBH medium,1.7 ± 0.2%
same,Tolerance of mutants relative to wild-type,[1],modest increment of tolerance
"O=C(O)c1cccc(Cl)c1 [3CB, 3-chlorobenzoate]",Tolerance (MIC),[2],0.9 ± 0.1%
same,Tolerance (MIC),[10]; LBH medium,1.2 ± 0.1%
same,Tolerance (MIC),[11]; LBH medium,1.1 ± 0.2%
same,Tolerance (MIC),[12]; LBH medium,1.3 ± 0.2%
same,Tolerance (MIC),[13]; LBH medium,1.1 ± 0.2%
same,Tolerance (MIC),[15]; LBH medium,1.1 ± 0.2%
same,Tolerance (MIC),[16]; LBH medium,1.0 ± 0.2%
same,Tolerance of mutants relative to wild-type,[1],slight or no increase of tolerance
"O=C(O)c1ccccc1O [2HBA, 2-hydroxybenzoate]",Tolerance (MIC),[2],0.8 ± 0.1%
same,Tolerance (MIC),[10]; LBH medium,0.7 ± 0.1%
same,Tolerance (MIC),[11]; LBH medium,0.8 ± 0.1%
same,Tolerance (MIC),[12]; LBH medium,0.8 ± 0.1%
same,Tolerance (MIC),[13]; LBH medium,0.8 ± 0.1%
same,Tolerance (MIC),[15]; LBH medium,0.9 ± 0.1%
same,Tolerance (MIC),[16]; LBH medium,0.8 ± 0.1%
same,Tolerance of mutants relative to wild-type,[1],slight or no increase of tolerance
CC(C)CC(=O)O [isovalerate],Tolerance of mutants relative to wild-type,[1],increased tolerance
O=C(O)c1ccc(O)c(Br)c1 [3-bromo-4-hydroxybenzoate],Tolerance of mutants relative to wild-type,[1],increased tolerance
Cc1cccc(C)c1 [m-xylene],growth,KH146-2; [20],inhibited almost completely
same,growth,Str and Rif mutants [18]; [20],grew
O=C(O)c1ccccc1I [2-iodobenzoate],Tolerance of mutants relative to wild-type,[1],increased tolerance
norvalerate,Tolerance of mutants relative to wild-type,[1],increased tolerance
O=C(O)c1cccc(I)c1 [3-iodobenzoate],Tolerance of mutants relative to wild-type,[1],increased tolerance
Cc1ccccc1 [toluene],growth,KH146-2; [21],somewhat retarded
same,growth,Str and Rif mutants [18]; [21],grew normally
CC(C)C(=O)O [isobutyrate],Tolerance of mutants relative to wild-type,[1],increased tolerance
